# Measured values from PMC10976160, “Comparative Pharmacokinetics Research of 13 Bioactive Components of Jieyu Pills in Control and Attention Deficit Hyperactivity Disorder Model Rats Based on UPLC-Orbitrap Fusion MS” (Molecules, 2024).
# Where two headings read alike, the source gives them in different places.
# Assay: Pharmacokinetics in ADHD model rats after gavage of JYPs
# Assay type: in vivo, SHR rats (ADHD model)
# Settings: for peak time: oral JYPs; for AUC(0-inf) / AUC(0-t) / Cmax / Tmax / half-life / MRT last / MRT inf: male, SHR, rat, plasma; for MRT last: read-out: MRT(0-t); for MRT inf: read-out: MRT(0-∞)
# Description: Based on the established analytical method for plasma samples, a pharmacokinetic study was conducted on 13 constituents in the plasma of ADHD model rats after gavage of JYPs (Figure 3). The linearity of ln(AUC0-t)–ln(dose) and ln(Cmax)–ln(dose) was analyzed in the same way.
# For the control experiment, healthy male Sprague Dawley (SD) rats of SPF grade ([…] ± 20 g) were purchased from Sipeifu (Beijing) Biotechnology Co., Ltd. (Beijing, China), Animal Quality Certificate No. 110324220102348616. For the ADHD model rats, healthy male SHR rats of SPF grade, weighing 220 ± 20 g, were purchased from SBF (Beijing) Biotechnology Co., Ltd. (Beijing, China), License No. SCXK (Yu) 2019-0010. The animals were accommodated in the Animal Center of Henan University of Traditional Chinese Medicine, which successfully underwent an ethical audit with ethics number DWLL202208003. The animals were bred under controlled conditions at a temperature of 24 °C and a relative humidity of 50 ± 2%. Before the experiment, the animals abstained from eating for 12 h and had unrestricted access to water. The feeding and experimental research conducted on the experimental animals adhered to the laws outlined in the Management of Experimental Animals in Henan Province.
# JYPs were ground into a fine powder and sieved through 60-mesh sieves; then, 20 g of fine JYP powder was taken, having been weighed precisely. A precise volume of 50 mL of pure water was added and mixed well to prepare a 0.4 g/mL suspension solution of JYPs, which was then stored in the refrigerator at 4 °C.
# This study involved 24 healthy male SD rats with a body mass of 220 ± 20 g and 24 healthy male ADHD rats with a body mass of 220 ± 20 g. Subjects abstained from food for a duration of 12 h before the experiment and consumed water without restriction. Both kinds of rats were randomly divided into four groups: a blank group, given an equal dose of water intragastrically, and 3 different administration groups: rats given the equivalent human dose of JYPs by gavage in doses of 1.080 g/kg/d, 2.160 g/kg/d, and 4.320 g/kg/d. Tail vein blood was collected at 0.083, 0.25, 0.5, 0.75, 1, 1.5, 2, 3, 4, 6, 8, 12, 18, and 24 h after dosing. About 0.5 mL of blood was collected in sodium heparin centrifugal tubes, then centrifuged at 4 °C for 10 min at a speed of 3500r/min. We took the upper layer and placed it at −80 °C for preservation.
# We took 200 μL of plasma, added 600 μL of methanol solution and 50 μL of internal standard (100 ng/mL), and subjected it to shaking for 5 min, followed by centrifugation at 4 °C at 12,000 r/min for 10 min. The supernatant was collected and allowed to dry, then reconstituted with 50 μL of 50% methanol and centrifuged at 4 °C at 14,000 r/min for a further 10 min. The supernatant after this process was taken as the test solution. A volume of 5 μL was used for UPLC-MS analysis. The drug concentration in plasma was calculated with the aid of the internal standard.
# Chromatographic conditions: Hypersil GOLD (100 × 2.1 mm, 1.9 μm) column; column temperature 35 °C; mobile phase acetonitrile (A)/0.1% formic acid aqueous solution (B); gradient elution; gradient elution program: 0–0.5 min (95% B–95% B), 0.5–8 min (95% B–50% B), 8–14 min (50% B–20% B), 14–20 min (20% B–5% B), 20–22 min (5% B–5% B), 22–25 min (95% B–95% B); flow rate 0.2 mL/min; injection volume 5 μL. The ion source was electrospray ionization (ESI), with positive and negative ion mode spray voltages of 3.50 and 3.0 kV, an ion transfer tube temperature of 300 °C, nitrogen as the carrier gas, a sheath gas pressure of 35 arb, an auxiliary gas pressure of 8 arb, and an auxiliary heater temperature of 275 °C.
# [1] = ADHD model rats, oral JYPs high dose 4.320 g/kg/d (3rd of 3 values)
# [2] = ADHD model rats, oral JYPs low dose 1.080 g/kg/d (1st of 3 values)
# [3] = ADHD model rats, oral JYPs medium dose 2.160 g/kg/d (2nd of 3 values)
# [4] = 1.08 g/kg/day, ADHD model rats, oral JYPs low dose 1.080 g/kg/d (1st of 3 values)
# [5] = 2.16 g/kg/day, ADHD model rats, oral JYPs medium dose 2.160 g/kg/d (2nd of 3 values)
# [6] = 4.32 g/kg/day, ADHD model rats, oral JYPs high dose 4.320 g/kg/d (3rd of 3 values)
structure (smiles),measurement,setting,value
C[C@H]1O[C@@H](O[C@H]2CC[C@@]3(C)[C@@H](CC[C@]4(C)[C@@H]3C=C[C@]35OC[C@@]6(CCC(C)(C)C[C@H]63)[C@@H](O)C[C@]54C)[C@]2(C)CO)[C@H](O)[C@@H](O[C@@H]2O[C@H](CO)[C@@H](O)[C@H](O)[C@H]2O)[C@H]1O [Saikosaponin A],peak time,ADHD model rats,less than 1 h
same,AUMC(0-t),[1],2395.92± 288.80 ng/mL*(h)²
same,AUMC(0-ꝏ),[1],5783.46± 3073.92 ng/mL*(h)²
same,Clearances,[1],2855.71 ± 621.15 mL/h
same,Vss,[1],40360.07 ± 12917.92 mL
same,AUMC(0-t),[2],1392.40± 460.59 ng/mL*(h)²
same,AUMC(0-ꝏ),[2],4853.64± 3957.39 ng/mL*(h)²
same,Clearances,[2],1291.22 ± 525.61 mL/h
same,Vss,[2],23782.60 ± 13625.69 mL
same,AUMC(0-t),[3],1937.54± 771.89 ng/mL*(h)²
same,AUMC(0-ꝏ),[3],5558.75± 2961.42 ng/mL*(h)²
same,Vss,[3],35282.72 ± 25449.21 mL
same,"MRT(0-t), ADHD rats compared with control rats",all concentrations,significantly higher
same,"AUC(0-t), model rats compared with control rats",high-dose administration group,significantly greater
same,AUC(0-inf),[4],233 ± 91.2 ng·h/mL
same,AUC(0-t),[4],164 ± 57.5 ng·h/mL
same,Cmax,[4],40.9 ± 22.9 ng/mL
same,Tmax,[4],0.5 ± 0.16 h
same,half-life,[4],13.3 ± 7.06 h
same,MRT last,[4],8.75 ± 1.6 h
same,MRT inf,[4],19.4 ± 9.93 h
same,AUC(0-inf),[5],324 ± 131 ng·h/mL
same,AUC(0-t),[5],240 ± 96.6 ng·h/mL
same,Cmax,[5],53 ± 19.2 ng/mL
same,Tmax,[5],0.79 ± 0.19 h
same,half-life,[5],12.2 ± 2.82 h
same,MRT last,[5],8.13 ± 1.23 h
same,MRT inf,[5],16.8 ± 3.55 h
same,AUC(0-inf),[6],387 ± 78.7 ng·h/mL
same,AUC(0-t),[6],307 ± 55.6 ng·h/mL
same,Cmax,[6],73.1 ± 22.6 ng/mL
same,Tmax,[6],0.58 ± 0.13 h
same,half-life,[6],10.3 ± 4.24 h
same,MRT last,[6],7.95 ± 1.2 h
same,MRT inf,[6],14.5 ± 5.42 h
CCC/C=C1\OC(=O)C2=C1CCC=C2 [Z-Ligustilide],AUMC(0-t),[1],458.69± 201.28 ng/mL*(h)²
same,AUMC(0-ꝏ),[1],1348.99± 756.73 ng/mL*(h)²
same,AUMC(0-t),[2],322.64± 100.23 ng/mL*(h)²
same,AUMC(0-ꝏ),[2],870.35± 311.46 ng/mL*(h)²
same,AUMC(0-t),[3],383.83± 150.84 ng/mL*(h)²
same,AUMC(0-ꝏ),[3],1224.58± 657.13 ng/mL*(h)²
same,t1/2,[3],14.63 ± 7.18 h
same,AUC(0-inf),[4],49.3 ± 14.7 ng·h/mL
same,AUC(0-t),[4],36.7 ± 18.2 ng·h/mL
same,Cmax,[4],4.07 ± 1.85 ng/mL
same,Tmax,[4],1.67 ± 1.21 h
same,half-life,[4],12.8 ± 3.2 h
same,MRT last,[4],8.9 ± 1.12 h
same,MRT inf,[4],17.9 ± 4.8 h
same,AUC(0-inf),[5],62.2 ± 24.5 ng·h/mL
same,AUC(0-t),[5],44.7 ± 18.2 ng·h/mL
same,Cmax,[5],5.57 ± 2.26 ng/mL
same,Tmax,[5],1.13 ± 0.44 h
same,MRT last,[5],8.72 ± 0.8 h
same,MRT inf,[5],20 ± 7.8 h
same,AUC(0-inf),[6],69.7 ± 27.1 ng·h/mL
same,AUC(0-t),[6],49.5 ± 16.8 ng·h/mL
same,Cmax,[6],6.63 ± 1.78 ng/mL
same,Tmax,[6],0.96 ± 0.1 h
same,half-life,[6],12.5 ± 3.72 h
same,MRT last,[6],8.9 ± 1.5 h
same,MRT inf,[6],18 ± 5 h
C[C@H]1O[C@@H](O[C@H]2CC[C@@]3(C)[C@@H](CC[C@]4(C)[C@@H]3C=C[C@]35OC[C@@]6(CCC(C)(C)C[C@H]63)[C@H](O)C[C@]54C)[C@]2(C)CO)[C@H](O)[C@@H](O[C@@H]2O[C@H](CO)[C@@H](O)[C@H](O)[C@H]2O)[C@H]1O [Saikosaponin D],peak time,ADHD model rats,less than 1 h
same,AUMC(0-t),[1],1294.18± 361.60 ng/mL*(h)²
same,AUMC(0-ꝏ),[1],3035.93± 850.28 ng/mL*(h)²
same,Clearances,[1],3506.08 ± 856.33 mL/h
same,Vss,[1],53202.65 ± 17657.23 mL
same,AUMC(0-t),[2],761.68± 201.22 ng/mL*(h)²
same,AUMC(0-ꝏ),[2],2701.81± 992.13 ng/mL*(h)²
same,Clearances,[2],1343.52 ± 399.07 mL/h
same,Vss,[2],26784.08 ± 8767.24 mL
same,AUMC(0-t),[3],1149.72± 377.93 ng/mL*(h)²
same,AUMC(0-ꝏ),[3],3004.18± 2085.30 ng/mL*(h)²
same,Clearances,[3],1952.91 ± 715.40 mL/h
same,Vss,[3],26532.70 ± 7619.14 mL
same,"MRT, model rats compared with control rats",high-dose,higher
same,AUC(0-inf),[4],132 ± 32.3 ng·h/mL
same,AUC(0-t),[4],91.3 ± 24.6 ng·h/mL
same,Cmax,[4],22.6 ± 2.41 ng/mL
same,Tmax,[4],0.58 ± 0.13 h
same,half-life,[4],15 ± 5.9 h
same,MRT last,[4],8.43 ± 0.96 h
same,MRT inf,[4],20.3 ± 5.6 h
same,AUC(0-inf),[5],188 ± 55.2 ng·h/mL
same,AUC(0-t),[5],145 ± 32.8 ng·h/mL
same,Cmax,[5],33.1 ± 3.36 ng/mL
same,Tmax,[5],0.54 ± 0.25 h
same,half-life,[5],10.6 ± 4.96 h
same,MRT last,[5],7.8 ± 1.36 h
same,MRT inf,[5],14.8 ± 6.52 h
same,AUC(0-inf),[6],201 ± 50 ng·h/mL
same,AUC(0-t),[6],156 ± 38.6 ng·h/mL
same,Cmax,[6],41.5 ± 12.4 ng/mL
same,Tmax,[6],0.38 ± 0.14 h
same,half-life,[6],10.3 ± 2.55 h
same,MRT last,[6],8.26 ± 0.54 h
same,MRT inf,[6],15.2 ± 2.75 h
same,"AUC, ADHD model rats compared with control rats",medium- and high-dose,higher
